This note sets out measurements from ChEMBL document CHEMBL1201862, “PubChem BioAssay data set” (2004).

A word on the GI50: it is the concentration at which growth is held to half of that of the control.

Some test systems named below: SNB-75; NCI-H460; NCI-H23; MOLT-4; CCRF-CEM; A498; NCI-H226; SF-539; K562; OVCAR-5; Malme-3M; LOX IMVI; UO-31; SW-620; HL-60; ACHN; A549; RPMI-8226; MDA-MB-435; T47D.
Holding throughout (assay): DTP human tumour cell line panel, 48 h

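A five-concentration, 48-hour dose response in 96-well plates underlies each endpoint, interpolated linearly between surrounding concentrations. GI50 marks 50% less growth.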 Calls of active or inactive are those of the source. Cut-off read from the data, not from the text of the source: active = GI50 up to about 1.1 µM and inactive = higher.

As to `CC(=O)NNc1nc(C)c(C(=O)NNC(=O)C(=O)Nc2c(C)cccc2C)s1`, the GI50 is 96.4 µM (inactive) in the experiment with SNB-75; 33 µM (inactive) in the experiment with NCI-H460; 24.7 µM (inactive) in the experiment with NCI-H23; 22.6 µM (inactive) in the experiment on MOLT-4; 32 µM (inactive) with CCRF-CEM; > 100 µM (inactive) in the experiment on A498. Further, the GI50 was > 100 µM (inactive) with NCI-H226; 60.5 µM (inactive) with SF-539; 34 µM (inactive) in the experiment with K562; 81.3 µM (inactive) in the experiment with OVCAR-5; 53.1 µM (inactive) with Malme-3M; 18.3 µM (inactive) in the experiment on LOX IMVI. Besides, the GI50 was 53.8 µM (inactive) with UO-31; 42.9 µM (inactive) in the experiment with SW-620; 25.9 µM (inactive) in the experiment with HL-60; 37.6 µM (inactive) in the experiment on ACHN; 42.4 µM (inactive) in the experiment on A549; 26.2 µM (inactive) in the experiment on RPMI-8226.

In the case of `CCOP(=O)(OCC)c1ccc(=O)[nH]c1-c1cccs1`, the GI50 in the experiment on SNB-75, with NCI-H460, in the experiment with NCI-H23, in the experiment on MOLT-4, in the experiment with MDA-MB-435 and with A498 was > 100 µM (inactive) in each case. Moreover, the GI50 with NCI-H226, with SF-539, in the experiment with K562, in the experiment on OVCAR-5, in the experiment with Malme-3M and in the experiment with UO-31 was > 100 µM (inactive) in each case. For the same compound, the GI50 in the experiment on SW-620, in the experiment on ACHN, with A549, in the experiment with RPMI-8226 and with T47D was > 100 µM (inactive) in each case.

For the compound `c1ccc2c(c1)N=C(c1cccc3ccccc13)CC(c1cccc3ccccc13)S2` (centres undefined), the GI50 was 5.83 µM (inactive) in the experiment on SNB-75; 3.8 µM (inactive) in the experiment on NCI-H460; 3.57 µM (inactive) in the experiment on NCI-H23; 2.24 µM (inactive) in the experiment with MOLT-4; 2.05 µM (inactive) with CCRF-CEM; 7.94 µM (inactive) in the experiment on A498. Also, the GI50 was 9.84 µM (inactive) with NCI-H226; 4.92 µM (inactive) in the experiment with SF-539; 2.49 µM (inactive) with K562; 6.9 µM (inactive) in the experiment with OVCAR-5; 14.9 µM (inactive) with Malme-3M; 3.48 µM (inactive) with LOX IMVI. For the same compound, the GI50 is 11.2 µM (inactive) with UO-31; 2.56 µM (inactive) with SW-620; 0.467 µM (active) with HL-60; 10.2 µM (inactive) in the experiment with ACHN; 9.12 µM (inactive) in the experiment on A549; 1.9 µM (inactive) in the experiment with RPMI-8226.

As for `COc1ccc(/C=C/c2cc(OC)c(OC)c(OC)c2)cc1OC`, the GI50 in the experiment on SNB-75 is > 44.3 µM (inactive); in the experiment on NCI-H460, > 100 µM (inactive); in the experiment with NCI-H23, > 100 µM (inactive); in the experiment on MOLT-4, > 100 µM (inactive); with CCRF-CEM it was > 100 µM (inactive); in the experiment on A498, > 74.1 µM (inactive). Moreover, the GI50 in the experiment on NCI-H226 is > 100 µM (inactive); in the experiment with SF-539, > 86.1 µM (inactive); in the experiment on K562, > 100 µM (inactive); in the experiment with OVCAR-5, > 100 µM (inactive); in the experiment with Malme-3M it was > 100 µM (inactive); with LOX IMVI, > 100 µM (inactive). The GI50 is > 92.7 µM (inactive) with UO-31; > 100 µM (inactive) with SW-620; > 70.3 µM (inactive) with HL-60; > 100 µM (inactive) in the experiment on ACHN; > 100 µM (inactive) in the experiment with A549; > 100 µM (inactive) in the experiment on RPMI-8226.

With `CC(=O)Oc1ccc2cc(Oc3ccccc3)c(=O)oc2c1`, the GI50 was 90.6 µM (inactive) in the experiment with SNB-75; 90.8 µM (inactive) in the experiment on NCI-H460; > 100 µM (inactive) in the experiment on NCI-H23; 67 µM (inactive) in the experiment with A498; > 100 µM (inactive) with NCI-H226; > 100 µM (inactive) with SF-539. Besides, the GI50 with OVCAR-5 was > 100 µM (inactive); with Malme-3M, > 100 µM (inactive); with LOX IMVI, 58.2 µM (inactive); in the experiment on UO-31 it was 61 µM (inactive); in the experiment with SW-620, > 100 µM (inactive); with HL-60 it was > 100 µM (inactive). For the same compound, the GI50 in the experiment on ACHN is > 100 µM (inactive); in the experiment with A549, 48.2 µM (inactive); in the experiment with RPMI-8226, > 100 µM (inactive); with T47D it was 36.1 µM (inactive).

Take `Cc1cc(C#N)c[n+](C)c1`: the GI50 in the experiment on SNB-75, in the experiment with NCI-H460, in the experiment with NCI-H23, in the experiment on MOLT-4, in the experiment on CCRF-CEM and in the experiment on A498 was > 100 µM (inactive) each time. Besides, the GI50 in the experiment on NCI-H226, in the experiment with SF-539, with K562, with OVCAR-5, in the experiment with Malme-3M and with UO-31 was > 100 µM (inactive) each time. Also, the GI50 with SW-620, in the experiment on HL-60, in the experiment on ACHN, in the experiment with A549 and with T47D was > 100 µM (inactive) in each case.

For the compound `CCOC(=O)c1[nH]c2c(OC)n[n+]([O-])cc2c1[N+](=O)[O-]`, the GI50 in the experiment with SNB-75 is 9.23 µM (inactive); with NCI-H460, 21.1 µM (inactive); in the experiment on NCI-H23, 10 µM (inactive); in the experiment on MOLT-4 it was 31.9 µM (inactive); in the experiment on CCRF-CEM, 26.1 µM (inactive); in the experiment with A498 it was 21.8 µM (inactive). For the same compound, the GI50 in the experiment on NCI-H226 is 26.9 µM (inactive); in the experiment with SF-539, 27.9 µM (inactive); in the experiment on K562, 14.4 µM (inactive); with OVCAR-5, 19.6 µM (inactive); in the experiment on Malme-3M, 18.3 µM (inactive); with LOX IMVI, 16.4 µM (inactive). For the same compound, the GI50 was 22 µM (inactive) in the experiment on UO-31; 15.7 µM (inactive) in the experiment on SW-620; 19.7 µM (inactive) in the experiment with HL-60; 17.3 µM (inactive) with ACHN; 88.5 µM (inactive) in the experiment on A549; 18.1 µM (inactive) with RPMI-8226.

In the case of `O=C1CSC(=S)N1c1ccco1`, the GI50 in the experiment with NCI-H460 was > 100 µM (inactive); in the experiment on NCI-H23, > 100 µM (inactive); with MOLT-4 it was > 100 µM (inactive); with CCRF-CEM, > 100 µM (inactive); in the experiment on MDA-MB-435, 24.2 µM (inactive); in the experiment with A498, > 100 µM (inactive). For the same compound, the GI50 in the experiment on NCI-H226 was > 100 µM (inactive); with SF-539, 66.7 µM (inactive); in the experiment with K562 it was > 100 µM (inactive); with OVCAR-5, > 100 µM (inactive); in the experiment on Malme-3M, > 100 µM (inactive); in the experiment on LOX IMVI, 79.6 µM (inactive). Moreover, the GI50 was 41.1 µM (inactive) in the experiment on SW-620; 32.6 µM (inactive) in the experiment with HL-60; > 100 µM (inactive) in the experiment on ACHN; > 100 µM (inactive) in the experiment on A549; 59.3 µM (inactive) in the experiment on RPMI-8226.

With `Cc1c2c(cc[n+]1C)O[B-](c1ccccc1)(c1ccccc1)O2`, the GI50 in the experiment on SNB-75 was 22.3 µM (inactive); with NCI-H460, 50 µM (inactive); in the experiment with NCI-H23 it was > 100 µM (inactive); in the experiment on MOLT-4 it was 35.5 µM (inactive); with CCRF-CEM it was 35.9 µM (inactive); in the experiment on A498, 64 µM (inactive). The GI50 in the experiment with NCI-H226 was 48.6 µM (inactive); with SF-539 it was 95.9 µM (inactive); in the experiment with K562, 46 µM (inactive); in the experiment on OVCAR-5, 87.3 µM (inactive); in the experiment with Malme-3M it was 65.5 µM (inactive); with LOX IMVI, 51.2 µM (inactive). Besides, the GI50 is 33.7 µM (inactive) in the experiment with UO-31; 26.8 µM (inactive) in the experiment on SW-620; 35.1 µM (inactive) in the experiment with HL-60; 35.9 µM (inactive) in the experiment with ACHN; 84.5 µM (inactive) with A549; 40.2 µM (inactive) in the experiment on RPMI-8226.

Take `Clc1ccc(C2=Nc3ccccc3SC(c3ccc(Cl)c(Cl)c3)C2)c(Cl)c1` (centres undefined): the GI50 in the experiment with SNB-75 is 15.4 µM (inactive); in the experiment on NCI-H460, 17.3 µM (inactive); in the experiment on NCI-H23, 15.3 µM (inactive); with MOLT-4 it was 4.9 µM (inactive); with CCRF-CEM, 3.11 µM (inactive); with A498 it was 20.6 µM (inactive). Moreover, the GI50 was 19 µM (inactive) with NCI-H226; 17.7 µM (inactive) in the experiment on SF-539; 6 µM (inactive) with K562; 17.1 µM (inactive) in the experiment on OVCAR-5; 16.1 µM (inactive) in the experiment on Malme-3M; 8.15 µM (inactive) with LOX IMVI. The GI50 with UO-31 is 14.4 µM (inactive); in the experiment with SW-620 it was 6.9 µM (inactive); with HL-60 it was 8.45 µM (inactive); in the experiment with ACHN it was 14.2 µM (inactive); in the experiment on A549, 21 µM (inactive); with RPMI-8226, 2.39 µM (inactive).

As for `C/C(=N\NC(=O)c1ccncc1)c1ccccc1F`, the GI50 in the experiment with SNB-75, with NCI-H460, in the experiment with NCI-H23, with MOLT-4, in the experiment on CCRF-CEM and in the experiment with A498 was > 10 µM (inactive) each time. In addition, the GI50 with NCI-H226, with SF-539, with K562, in the experiment with OVCAR-5, in the experiment on Malme-3M and in the experiment with LOX IMVI was > 10 µM (inactive) in each case. In addition, the GI50 in the experiment on UO-31, in the experiment on SW-620, in the experiment with HL-60, with ACHN, with A549 and with RPMI-8226 was > 10 µM (inactive) throughout. The GI50 in the experiment with T47D was > 10 µM (inactive).
